Experiment [1] addresses Cyclin-dependent kinase 6 (Homo sapiens, UniProt Q00534).
Another experiment addresses Ephrin type-A receptor 5 (Homo sapiens, UniProt P54756).
For another experiment, the target named is T1, Heme oxygenase 2 (Homo sapiens, UniProt P30519).
T1 sequence (P30519 whole entry): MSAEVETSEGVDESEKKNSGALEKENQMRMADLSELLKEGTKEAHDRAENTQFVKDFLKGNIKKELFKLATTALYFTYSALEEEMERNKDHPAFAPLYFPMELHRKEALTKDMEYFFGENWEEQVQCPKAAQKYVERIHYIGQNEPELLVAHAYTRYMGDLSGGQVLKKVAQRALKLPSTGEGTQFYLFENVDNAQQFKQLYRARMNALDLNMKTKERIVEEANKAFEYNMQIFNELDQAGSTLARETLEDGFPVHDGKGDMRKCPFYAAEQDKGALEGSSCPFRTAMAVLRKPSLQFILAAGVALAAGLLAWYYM

The target of experiment [2] is Tyrosine-protein kinase JAK1 (Homo sapiens, UniProt P23458).
Experiment [3] addresses T2, Serine/threonine-protein kinase Nek9 (Homo sapiens, UniProt Q8TD19).
T2 sequence (Q8TD19 whole entry): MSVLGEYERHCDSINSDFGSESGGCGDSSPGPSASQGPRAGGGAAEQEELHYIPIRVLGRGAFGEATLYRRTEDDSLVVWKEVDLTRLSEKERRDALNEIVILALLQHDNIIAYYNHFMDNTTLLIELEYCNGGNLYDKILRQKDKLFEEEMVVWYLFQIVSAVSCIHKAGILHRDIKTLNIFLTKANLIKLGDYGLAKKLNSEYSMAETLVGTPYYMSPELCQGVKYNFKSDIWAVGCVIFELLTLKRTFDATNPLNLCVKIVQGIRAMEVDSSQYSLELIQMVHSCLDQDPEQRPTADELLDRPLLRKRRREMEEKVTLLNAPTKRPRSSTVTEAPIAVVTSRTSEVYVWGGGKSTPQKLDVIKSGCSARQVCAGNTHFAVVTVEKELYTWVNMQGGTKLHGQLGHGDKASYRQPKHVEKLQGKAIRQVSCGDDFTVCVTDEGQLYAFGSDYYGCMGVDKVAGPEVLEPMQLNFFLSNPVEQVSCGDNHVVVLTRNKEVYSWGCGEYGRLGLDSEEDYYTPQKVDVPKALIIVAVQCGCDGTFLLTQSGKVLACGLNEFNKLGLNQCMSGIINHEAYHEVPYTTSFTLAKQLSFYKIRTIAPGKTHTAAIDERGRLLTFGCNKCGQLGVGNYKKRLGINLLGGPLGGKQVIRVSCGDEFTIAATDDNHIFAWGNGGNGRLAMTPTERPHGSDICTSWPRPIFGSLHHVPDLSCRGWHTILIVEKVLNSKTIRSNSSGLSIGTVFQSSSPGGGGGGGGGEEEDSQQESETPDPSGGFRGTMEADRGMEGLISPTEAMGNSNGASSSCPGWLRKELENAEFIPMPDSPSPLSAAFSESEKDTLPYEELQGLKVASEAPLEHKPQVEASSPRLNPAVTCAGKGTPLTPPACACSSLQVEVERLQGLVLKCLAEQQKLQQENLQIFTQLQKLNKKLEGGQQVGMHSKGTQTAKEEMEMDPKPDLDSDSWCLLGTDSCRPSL

The target in experiment [4] is T3, Serine/threonine-protein kinase D2 (Homo sapiens, UniProt Q9BZL6).
T3 sequence (Q9BZL6 whole entry): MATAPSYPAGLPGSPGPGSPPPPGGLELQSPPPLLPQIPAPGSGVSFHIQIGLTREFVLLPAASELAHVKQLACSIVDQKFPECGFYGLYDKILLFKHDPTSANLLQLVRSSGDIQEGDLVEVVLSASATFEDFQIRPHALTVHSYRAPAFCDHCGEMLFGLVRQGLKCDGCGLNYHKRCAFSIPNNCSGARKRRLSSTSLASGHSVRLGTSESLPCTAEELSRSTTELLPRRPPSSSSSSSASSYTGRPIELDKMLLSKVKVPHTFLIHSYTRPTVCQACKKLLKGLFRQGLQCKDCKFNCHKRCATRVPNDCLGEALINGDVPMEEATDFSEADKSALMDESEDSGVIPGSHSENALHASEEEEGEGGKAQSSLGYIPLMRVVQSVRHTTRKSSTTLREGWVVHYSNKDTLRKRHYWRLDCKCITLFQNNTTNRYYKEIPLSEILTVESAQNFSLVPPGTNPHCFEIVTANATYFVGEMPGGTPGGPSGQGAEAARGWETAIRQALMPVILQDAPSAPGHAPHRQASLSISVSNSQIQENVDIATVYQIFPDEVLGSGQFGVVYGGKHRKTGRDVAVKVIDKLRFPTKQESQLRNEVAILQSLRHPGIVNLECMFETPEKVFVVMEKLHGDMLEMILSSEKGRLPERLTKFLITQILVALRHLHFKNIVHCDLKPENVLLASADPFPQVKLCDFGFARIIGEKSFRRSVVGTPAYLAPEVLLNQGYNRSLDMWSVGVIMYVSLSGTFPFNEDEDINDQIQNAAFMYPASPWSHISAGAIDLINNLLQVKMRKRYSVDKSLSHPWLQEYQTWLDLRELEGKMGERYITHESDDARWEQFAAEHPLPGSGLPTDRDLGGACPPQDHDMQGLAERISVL

Experiment [5] deals with T4, Ras-related protein Rab-10 (Homo sapiens, UniProt P61026).
T4 sequence (P61026 whole entry): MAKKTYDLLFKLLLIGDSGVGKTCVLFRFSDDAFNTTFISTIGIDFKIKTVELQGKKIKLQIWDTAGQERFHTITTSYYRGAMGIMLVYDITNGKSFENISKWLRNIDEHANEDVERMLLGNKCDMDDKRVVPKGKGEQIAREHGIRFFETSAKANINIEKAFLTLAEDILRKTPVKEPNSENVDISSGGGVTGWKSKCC

The target in experiment [6] is Serine/threonine-protein kinase SIK2 (Homo sapiens, UniProt Q9H0K1).
The target in a further experiment is T5, ADP/ATP translocase 3 (Homo sapiens, UniProt P12236).
T5 sequence (P12236 whole entry): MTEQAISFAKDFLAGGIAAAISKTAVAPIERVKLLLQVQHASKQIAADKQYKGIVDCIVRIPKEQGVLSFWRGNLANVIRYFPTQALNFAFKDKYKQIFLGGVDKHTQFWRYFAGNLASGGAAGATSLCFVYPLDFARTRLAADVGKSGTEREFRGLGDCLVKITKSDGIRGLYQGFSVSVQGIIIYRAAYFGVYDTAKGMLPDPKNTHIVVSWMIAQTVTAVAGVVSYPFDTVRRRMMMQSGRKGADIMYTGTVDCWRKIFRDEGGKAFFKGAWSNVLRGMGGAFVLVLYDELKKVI

A further experiment concerns the target TGF-beta receptor type-2 (Homo sapiens, UniProt P37173).

Structures are written as SMILES. Active and inactive are the calls of the source. Cut-off read from the data, not from the text of the source, for most assays here: actives have a measured Kd and inactives only a lower limit.

One may read the Kd as a measure of binding affinity in units of concentration.
Note: in the data inactive means no Kd found up to 30 µM.

Chain of Cyclin-dependent kinase 6 (Q00534 whole entry): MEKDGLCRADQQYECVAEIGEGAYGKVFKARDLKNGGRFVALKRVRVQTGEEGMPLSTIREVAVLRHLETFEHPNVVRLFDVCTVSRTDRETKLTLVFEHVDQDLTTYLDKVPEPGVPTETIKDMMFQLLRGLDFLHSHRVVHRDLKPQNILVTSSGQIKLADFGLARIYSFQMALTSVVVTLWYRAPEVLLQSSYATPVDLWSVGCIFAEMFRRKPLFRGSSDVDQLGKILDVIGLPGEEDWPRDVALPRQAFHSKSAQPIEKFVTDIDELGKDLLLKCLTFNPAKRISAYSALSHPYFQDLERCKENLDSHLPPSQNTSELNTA
Chain of Tyrosine-protein kinase JAK1 (P23458 whole entry): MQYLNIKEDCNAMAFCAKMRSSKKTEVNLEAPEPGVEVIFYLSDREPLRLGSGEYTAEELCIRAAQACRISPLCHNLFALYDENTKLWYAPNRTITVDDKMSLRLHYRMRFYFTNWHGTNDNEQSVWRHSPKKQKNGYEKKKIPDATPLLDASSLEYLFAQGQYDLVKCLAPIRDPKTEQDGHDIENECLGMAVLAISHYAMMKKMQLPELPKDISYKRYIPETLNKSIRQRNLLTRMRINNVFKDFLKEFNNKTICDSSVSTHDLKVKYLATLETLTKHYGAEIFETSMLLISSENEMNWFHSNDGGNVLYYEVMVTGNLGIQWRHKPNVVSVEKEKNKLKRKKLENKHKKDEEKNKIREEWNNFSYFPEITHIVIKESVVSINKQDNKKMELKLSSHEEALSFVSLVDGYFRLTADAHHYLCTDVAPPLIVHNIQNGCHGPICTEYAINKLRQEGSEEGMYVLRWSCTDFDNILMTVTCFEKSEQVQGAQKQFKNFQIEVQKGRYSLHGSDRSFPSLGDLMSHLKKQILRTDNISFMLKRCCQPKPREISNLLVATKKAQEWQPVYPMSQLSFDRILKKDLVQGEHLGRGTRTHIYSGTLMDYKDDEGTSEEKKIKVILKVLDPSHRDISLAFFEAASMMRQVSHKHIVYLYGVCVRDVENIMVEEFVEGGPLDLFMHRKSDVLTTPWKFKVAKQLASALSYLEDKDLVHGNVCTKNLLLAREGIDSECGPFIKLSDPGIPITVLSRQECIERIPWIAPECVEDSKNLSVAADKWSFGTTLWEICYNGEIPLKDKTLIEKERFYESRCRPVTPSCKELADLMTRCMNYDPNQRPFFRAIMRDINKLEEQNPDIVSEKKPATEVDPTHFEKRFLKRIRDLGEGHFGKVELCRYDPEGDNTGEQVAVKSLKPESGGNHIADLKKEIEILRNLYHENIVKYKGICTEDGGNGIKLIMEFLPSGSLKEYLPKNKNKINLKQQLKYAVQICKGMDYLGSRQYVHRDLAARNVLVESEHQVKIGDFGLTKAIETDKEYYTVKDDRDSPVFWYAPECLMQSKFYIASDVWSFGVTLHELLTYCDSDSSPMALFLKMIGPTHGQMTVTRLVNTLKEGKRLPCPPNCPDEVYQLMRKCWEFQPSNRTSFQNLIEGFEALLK
Chain of Serine/threonine-protein kinase SIK2 (Q9H0K1 whole entry): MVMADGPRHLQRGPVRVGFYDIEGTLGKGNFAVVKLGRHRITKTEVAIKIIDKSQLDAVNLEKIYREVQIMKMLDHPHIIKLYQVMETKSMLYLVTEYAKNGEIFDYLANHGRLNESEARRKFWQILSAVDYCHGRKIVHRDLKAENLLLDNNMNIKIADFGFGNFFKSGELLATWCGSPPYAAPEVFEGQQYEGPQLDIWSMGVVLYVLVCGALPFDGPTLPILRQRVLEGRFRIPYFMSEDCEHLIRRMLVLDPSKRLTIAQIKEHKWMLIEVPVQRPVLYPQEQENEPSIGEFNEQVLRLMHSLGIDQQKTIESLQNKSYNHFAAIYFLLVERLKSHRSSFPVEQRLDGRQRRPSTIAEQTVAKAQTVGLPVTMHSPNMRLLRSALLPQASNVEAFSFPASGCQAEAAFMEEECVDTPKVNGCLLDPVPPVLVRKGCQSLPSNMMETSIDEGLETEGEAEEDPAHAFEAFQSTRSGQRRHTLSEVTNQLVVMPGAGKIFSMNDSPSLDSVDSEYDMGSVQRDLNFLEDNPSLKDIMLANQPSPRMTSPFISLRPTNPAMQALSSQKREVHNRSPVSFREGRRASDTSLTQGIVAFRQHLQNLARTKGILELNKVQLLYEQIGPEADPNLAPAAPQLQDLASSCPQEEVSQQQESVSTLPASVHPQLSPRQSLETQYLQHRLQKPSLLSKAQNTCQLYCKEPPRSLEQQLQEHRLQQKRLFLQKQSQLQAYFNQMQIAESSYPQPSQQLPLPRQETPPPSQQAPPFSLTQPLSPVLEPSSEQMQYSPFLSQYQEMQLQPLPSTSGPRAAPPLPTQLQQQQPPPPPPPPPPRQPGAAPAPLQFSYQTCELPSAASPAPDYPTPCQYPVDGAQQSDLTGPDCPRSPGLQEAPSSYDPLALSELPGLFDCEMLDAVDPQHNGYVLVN
Chain of TGF-beta receptor type-2 (P37173 whole entry): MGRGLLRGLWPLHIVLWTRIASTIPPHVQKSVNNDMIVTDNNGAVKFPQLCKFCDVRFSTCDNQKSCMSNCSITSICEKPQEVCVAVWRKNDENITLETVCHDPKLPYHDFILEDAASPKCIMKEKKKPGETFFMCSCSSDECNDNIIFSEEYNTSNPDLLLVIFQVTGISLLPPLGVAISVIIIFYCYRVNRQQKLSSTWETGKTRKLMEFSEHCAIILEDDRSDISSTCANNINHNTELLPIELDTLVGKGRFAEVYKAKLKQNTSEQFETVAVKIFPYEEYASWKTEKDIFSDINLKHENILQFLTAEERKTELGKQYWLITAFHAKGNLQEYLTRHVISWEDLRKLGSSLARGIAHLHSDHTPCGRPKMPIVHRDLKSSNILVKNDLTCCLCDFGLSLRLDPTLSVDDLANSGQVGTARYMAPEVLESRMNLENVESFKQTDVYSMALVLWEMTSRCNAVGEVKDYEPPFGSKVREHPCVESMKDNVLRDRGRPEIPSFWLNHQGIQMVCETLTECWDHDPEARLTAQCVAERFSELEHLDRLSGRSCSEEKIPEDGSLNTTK
Chain of Ephrin type-A receptor 5 (P54756 whole entry): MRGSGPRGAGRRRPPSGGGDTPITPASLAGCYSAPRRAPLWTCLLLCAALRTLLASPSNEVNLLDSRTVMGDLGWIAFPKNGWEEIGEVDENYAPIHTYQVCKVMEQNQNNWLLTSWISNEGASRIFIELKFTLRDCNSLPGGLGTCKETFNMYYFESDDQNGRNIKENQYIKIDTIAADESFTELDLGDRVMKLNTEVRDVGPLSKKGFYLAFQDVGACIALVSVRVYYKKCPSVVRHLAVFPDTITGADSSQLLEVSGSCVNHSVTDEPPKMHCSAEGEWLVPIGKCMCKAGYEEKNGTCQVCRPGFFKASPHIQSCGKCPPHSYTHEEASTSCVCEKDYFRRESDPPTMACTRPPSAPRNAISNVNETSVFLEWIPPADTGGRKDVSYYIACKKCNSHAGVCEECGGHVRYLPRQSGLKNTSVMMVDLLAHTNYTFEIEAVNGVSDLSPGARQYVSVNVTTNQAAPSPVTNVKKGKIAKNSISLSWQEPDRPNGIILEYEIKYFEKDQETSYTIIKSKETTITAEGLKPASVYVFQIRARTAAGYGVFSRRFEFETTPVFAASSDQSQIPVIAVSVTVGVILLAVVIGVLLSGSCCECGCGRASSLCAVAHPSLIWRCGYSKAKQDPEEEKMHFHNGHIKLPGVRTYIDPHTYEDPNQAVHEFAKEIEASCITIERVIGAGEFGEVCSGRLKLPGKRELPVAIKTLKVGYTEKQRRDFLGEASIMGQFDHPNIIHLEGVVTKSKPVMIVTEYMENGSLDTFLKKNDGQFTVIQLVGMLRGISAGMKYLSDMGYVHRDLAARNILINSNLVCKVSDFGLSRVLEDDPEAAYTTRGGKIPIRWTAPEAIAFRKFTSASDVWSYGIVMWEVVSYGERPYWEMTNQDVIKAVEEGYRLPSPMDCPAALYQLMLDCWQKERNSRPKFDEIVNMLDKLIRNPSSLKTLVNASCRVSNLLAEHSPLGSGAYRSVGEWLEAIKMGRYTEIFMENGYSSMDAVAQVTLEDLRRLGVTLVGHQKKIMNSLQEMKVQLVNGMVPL

With `C=CCn1c(=O)c2cnc(Nc3ccc(N4CCN(C)CC4)cc3)nc2n1-c1cccc(C(C)(C)O)n1` [ADAVOSERTIB], the Kd (in experiment [1]; on Ephrin type-A receptor 5; on Heme oxygenase 2; in experiment [2]; in [3]; in experiment [4]) was > 30 µM (inactive) each time. The Kd (in experiment [5]; in [6]; on ADP/ATP translocase 3; at TGF-beta receptor type-2) was > 30 µM (inactive) each time.

As to `COc1cc2ncnc(Nc3ccc(F)c(Cl)c3)c2cc1NC(=O)/C=C/CN1CCCCC1` [DACOMITINIB ANHYDROUS], the Kd (in [1]; at Ephrin type-A receptor 5; at Heme oxygenase 2; in experiment [2]; in experiment [3]; in experiment [4]) was > 30 µM (inactive) throughout. In addition, the Kd (in [6]; on ADP/ATP translocase 3; at TGF-beta receptor type-2) was > 30 µM (inactive) in each case.

Consider `COCCN1CCN(Cc2ccc(-c3n[nH]c4c3C(=O)c3c(NC(=O)NN5CCOCC5)cccc3-4)cc2)CC1` [RGB-286638], for which the Kd in experiment [1] is > 30 µM (inactive); on Ephrin type-A receptor 5 it was > 30 µM (inactive); at Heme oxygenase 2, > 30 µM (inactive); in [2] it was 0.139 µM (active); in [3], > 30 µM (inactive); in [4], 0.195 µM (active). Moreover, the Kd in experiment [5] is > 30 µM (inactive); in experiment [6] it was 0.207 µM (active); at ADP/ATP translocase 3 it was > 30 µM (inactive); on TGF-beta receptor type-2, 0.08 µM (active).

`O=C(NOC[C@H](O)CO)c1ccc(F)c(F)c1Nc1ccc(I)cc1F` [MIRDAMETINIB]: the Kd (in [1]; on Ephrin type-A receptor 5; on Heme oxygenase 2; in experiment [2]; in experiment [3]; in experiment [4]) was > 30 µM (inactive) in each case. Further, the Kd (in [5]; in experiment [6]; at ADP/ATP translocase 3; at TGF-beta receptor type-2) was > 30 µM (inactive) throughout.

Consider `CNC(=O)c1cccc(-c2ccc3c(N4CCOC[C@@H]4C)nc(N4CCOC[C@@H]4C)nc3n2)c1` [VISTUSERTIB], for which the Kd (in experiment [1]; at Ephrin type-A receptor 5; on Heme oxygenase 2; in experiment [2]; in [3]; in experiment [4]) was > 30 µM (inactive) in each case. The Kd (in experiment [5]; in experiment [6]; at ADP/ATP translocase 3; at TGF-beta receptor type-2) was > 30 µM (inactive) each time.

In the case of `CCN1CCN(Cc2ccc(Nc3ncc(F)c(-c4cc(F)c5nc(C)n(C(C)C)c5c4)n3)nc2)CC1` [ABEMACICLIB], the Kd at Ephrin type-A receptor 5 is > 30 µM (inactive); at Heme oxygenase 2 it was > 30 µM (inactive); in [2] it was > 30 µM (inactive); in experiment [3], > 30 µM (inactive); in experiment [4], 2.06 µM (active); in experiment [5], > 30 µM (inactive). Also, the Kd (in [6]; on ADP/ATP translocase 3; on TGF-beta receptor type-2) was > 30 µM (inactive) throughout.

Take `CNC(=O)c1ccc(Nc2ncc(C(F)(F)F)c(NCc3nccnc3N(C)S(C)(=O)=O)n2)cc1` [DEFACTINIB]: the Kd (at Ephrin type-A receptor 5; at Heme oxygenase 2; in [2]; in experiment [3]; in [4]; in [5]) was > 30 µM (inactive) each time. In addition, the Kd (in experiment [6]; on ADP/ATP translocase 3; at TGF-beta receptor type-2) was > 30 µM (inactive) each time.

Take `Cn1cc(-c2[nH]c3cc(NC(=O)[C@H](N)C4CCCCC4)cc4c3c2C=NNC4=O)cn1`: the Kd (in [1]; on Ephrin type-A receptor 5; at Heme oxygenase 2; in experiment [3]; in [4]; in experiment [5]) was > 30 µM (inactive) in each case. In addition, the Kd was 0.047 µM (active) in [6], > 30 µM (inactive) on ADP/ATP translocase 3 and 0.146 µM (active) on TGF-beta receptor type-2.

On to `CCOc1ccn(-c2ccc(F)cc2)c(=O)c1C(=O)Nc1ccc(Oc2ccnc(N)c2Cl)c(F)c1` [BMS-777607], for which the Kd (in [1]; at Ephrin type-A receptor 5; at Heme oxygenase 2; in experiment [2]; in experiment [3]; in experiment [4]) was > 30 µM (inactive) throughout. For the same compound, the Kd (in experiment [6]; on ADP/ATP translocase 3; on TGF-beta receptor type-2) was > 30 µM (inactive) in each case.

With `CC(C)CC(=O)Nc1[nH]nc2c1CN(C(=O)C1CCN(C)CC1)C2(C)C` [PHA-793887], the Kd in experiment [1] was > 30 µM (inactive); at Ephrin type-A receptor 5 it was > 30 µM (inactive); in experiment [2] it was > 30 µM (inactive); in experiment [3], > 30 µM (inactive); in [4], 0.103 µM (active); in experiment [5] it was > 30 µM (inactive). The Kd (in experiment [6]; on ADP/ATP translocase 3; at TGF-beta receptor type-2) was > 30 µM (inactive) in each case.

In the case of `N#CCNC(=O)c1ccc(-c2ccnc(Nc3ccc(N4CCOCC4)cc3)n2)cc1` [MOMELOTINIB], the Kd was 3.36 µM in [1]; > 30 µM (inactive) at Ephrin type-A receptor 5; > 30 µM (inactive) on Heme oxygenase 2; 0.474 µM (active) in [3]; 0.531 µM (active) in experiment [4]; 0.79 µM (active) in experiment [6]. The Kd on ADP/ATP translocase 3 and at TGF-beta receptor type-2 was > 30 µM (inactive) throughout.

Source of the values: ChEMBL document CHEMBL3991601, “The target landscape of clinical kinase drugs” (Science, 2017).
